Converted amounts (≈) assume the structure as drawn.
Experiments:
KB = test: Cytotoxicity against human KB cells; type: functional; conditions: read-out: ED50 (the source's name)
[1] = Cytotoxicity against human PLC/PRF/5 cells; type: functional; conditions: read-out: ED50 (the source's name)

Row | SMILES | EC50 (KB) [µg/mL] | EC50 [1] [µg/mL]
1 | Cc1cc(O)c2c(c1)C(=O)c1cccc(O)c1C2=O [CHRYSOPHANOL] | 5.68 (≈ 22.3 µM) | 3.23 (≈ 12.7 µM)
2 | Cc1cc(O)c2c(c1)C(=O)c1cc(O)cc(O)c1C2=O [EMODIN] | 3.46 (≈ 12.8 µM) | 5.91 (≈ 21.9 µM)
3 | Cc1cc(O)c2c(c1)C(=O)c1cc(O[C@@H]3OC[C@](O)(CO)[C@H]3O)cc(O)c1C2=O [FRANGULIN B] | 2.49 (≈ 6.19 µM) | 0.8 (≈ 1.99 µM)
4 | COc1cc(O)c2c(c1)C(=O)c1cc(C)cc(O)c1C2=O [PHYSCION] | 1.55 (≈ 5.45 µM) | 1.44 (≈ 5.07 µM)
